Assays:
[1] = molecular target: PIK3CA (human) (UniProt P42336); experiment: Assessment of PIK3CA Kinase Activity
[2] = molecular target: PIK3CB (Human) (UniProt P42338); experiment: Assessment of PIK3CB Kinase Activity
[3] = molecular target: PIK3CD (Human) (UniProt O00329); experiment: Assessment of PIK3CD Kinase Activity
Sequence of PIK3CD (Human) (O00329 whole entry, looked up): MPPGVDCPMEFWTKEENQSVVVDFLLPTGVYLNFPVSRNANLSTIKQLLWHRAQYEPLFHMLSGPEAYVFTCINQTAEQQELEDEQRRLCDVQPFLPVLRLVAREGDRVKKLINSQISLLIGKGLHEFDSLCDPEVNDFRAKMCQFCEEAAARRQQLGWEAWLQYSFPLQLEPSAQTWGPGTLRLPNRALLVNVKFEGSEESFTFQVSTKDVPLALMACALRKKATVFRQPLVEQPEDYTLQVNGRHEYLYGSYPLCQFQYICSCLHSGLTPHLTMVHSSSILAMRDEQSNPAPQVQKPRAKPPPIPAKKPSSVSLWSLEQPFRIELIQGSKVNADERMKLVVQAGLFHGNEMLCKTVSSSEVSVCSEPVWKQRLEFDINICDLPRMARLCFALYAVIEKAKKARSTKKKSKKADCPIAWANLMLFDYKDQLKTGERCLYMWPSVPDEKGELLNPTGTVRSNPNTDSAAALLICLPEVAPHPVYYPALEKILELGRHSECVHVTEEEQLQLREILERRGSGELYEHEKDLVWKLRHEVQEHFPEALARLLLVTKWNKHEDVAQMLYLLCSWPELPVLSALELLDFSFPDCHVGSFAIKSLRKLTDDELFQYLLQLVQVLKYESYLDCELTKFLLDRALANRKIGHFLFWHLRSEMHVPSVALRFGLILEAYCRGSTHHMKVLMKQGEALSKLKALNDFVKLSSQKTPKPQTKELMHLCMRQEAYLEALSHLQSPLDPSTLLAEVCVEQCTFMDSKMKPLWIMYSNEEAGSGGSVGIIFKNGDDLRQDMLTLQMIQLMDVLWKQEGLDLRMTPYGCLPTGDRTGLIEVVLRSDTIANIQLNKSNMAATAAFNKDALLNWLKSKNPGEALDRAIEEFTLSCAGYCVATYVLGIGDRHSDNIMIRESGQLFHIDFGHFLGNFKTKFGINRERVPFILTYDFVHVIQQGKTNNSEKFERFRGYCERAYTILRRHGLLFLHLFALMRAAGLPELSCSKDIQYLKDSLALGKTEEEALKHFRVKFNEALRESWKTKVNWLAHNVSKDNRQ

Sequence of PIK3CA (human) (P42336 whole entry, looked up): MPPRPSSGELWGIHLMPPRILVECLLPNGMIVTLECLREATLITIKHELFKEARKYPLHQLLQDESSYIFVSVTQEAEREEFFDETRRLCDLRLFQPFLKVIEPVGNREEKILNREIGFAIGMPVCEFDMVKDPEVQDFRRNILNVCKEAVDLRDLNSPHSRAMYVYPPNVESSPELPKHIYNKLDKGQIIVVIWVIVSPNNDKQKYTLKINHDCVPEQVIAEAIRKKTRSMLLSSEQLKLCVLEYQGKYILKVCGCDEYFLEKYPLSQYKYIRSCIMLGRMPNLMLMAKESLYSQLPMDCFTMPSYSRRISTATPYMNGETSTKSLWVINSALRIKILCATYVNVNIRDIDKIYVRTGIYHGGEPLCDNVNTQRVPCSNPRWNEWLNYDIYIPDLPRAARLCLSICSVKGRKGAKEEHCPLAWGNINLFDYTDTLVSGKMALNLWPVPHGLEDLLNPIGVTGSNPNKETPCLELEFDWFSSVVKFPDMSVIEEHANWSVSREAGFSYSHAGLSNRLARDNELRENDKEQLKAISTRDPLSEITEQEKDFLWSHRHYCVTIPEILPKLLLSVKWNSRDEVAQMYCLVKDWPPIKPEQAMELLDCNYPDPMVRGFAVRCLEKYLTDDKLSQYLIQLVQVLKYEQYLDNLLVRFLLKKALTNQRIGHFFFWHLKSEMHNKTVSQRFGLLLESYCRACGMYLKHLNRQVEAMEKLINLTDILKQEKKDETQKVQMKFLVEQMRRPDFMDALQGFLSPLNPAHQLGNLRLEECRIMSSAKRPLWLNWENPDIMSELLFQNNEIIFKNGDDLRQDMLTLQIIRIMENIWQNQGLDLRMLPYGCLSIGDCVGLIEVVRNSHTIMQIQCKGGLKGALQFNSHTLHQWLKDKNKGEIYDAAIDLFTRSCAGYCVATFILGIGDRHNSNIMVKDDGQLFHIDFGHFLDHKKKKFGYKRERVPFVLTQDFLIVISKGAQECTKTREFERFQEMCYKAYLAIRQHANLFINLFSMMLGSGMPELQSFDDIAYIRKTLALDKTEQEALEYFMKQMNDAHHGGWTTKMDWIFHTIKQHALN
Sequence of PIK3CB (Human) (P42338 whole entry, looked up): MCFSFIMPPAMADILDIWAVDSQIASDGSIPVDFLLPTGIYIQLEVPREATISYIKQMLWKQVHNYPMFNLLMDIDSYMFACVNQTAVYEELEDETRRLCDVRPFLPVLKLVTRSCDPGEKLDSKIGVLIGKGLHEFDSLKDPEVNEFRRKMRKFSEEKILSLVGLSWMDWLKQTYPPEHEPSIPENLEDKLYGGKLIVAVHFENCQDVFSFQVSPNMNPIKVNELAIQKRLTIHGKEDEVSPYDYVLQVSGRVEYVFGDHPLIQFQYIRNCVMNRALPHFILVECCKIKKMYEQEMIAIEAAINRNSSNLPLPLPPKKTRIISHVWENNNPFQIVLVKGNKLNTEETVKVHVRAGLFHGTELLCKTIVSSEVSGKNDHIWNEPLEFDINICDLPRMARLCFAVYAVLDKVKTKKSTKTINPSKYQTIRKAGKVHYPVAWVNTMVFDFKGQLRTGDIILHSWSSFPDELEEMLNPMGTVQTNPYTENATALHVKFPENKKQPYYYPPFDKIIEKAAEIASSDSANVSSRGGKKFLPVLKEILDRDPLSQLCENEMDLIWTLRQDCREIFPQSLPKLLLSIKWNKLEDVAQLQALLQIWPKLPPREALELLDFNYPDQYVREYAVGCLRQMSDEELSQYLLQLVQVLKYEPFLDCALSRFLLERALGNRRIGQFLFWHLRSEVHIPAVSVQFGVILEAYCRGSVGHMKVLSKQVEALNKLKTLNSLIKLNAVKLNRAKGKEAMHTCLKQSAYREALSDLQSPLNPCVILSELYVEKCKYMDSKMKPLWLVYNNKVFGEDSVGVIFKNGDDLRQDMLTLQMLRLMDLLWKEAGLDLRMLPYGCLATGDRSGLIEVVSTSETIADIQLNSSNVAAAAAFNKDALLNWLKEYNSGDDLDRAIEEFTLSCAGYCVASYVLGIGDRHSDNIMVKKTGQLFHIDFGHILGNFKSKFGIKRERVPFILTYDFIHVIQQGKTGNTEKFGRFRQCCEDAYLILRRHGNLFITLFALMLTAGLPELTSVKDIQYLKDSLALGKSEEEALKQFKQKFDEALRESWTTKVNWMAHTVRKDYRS

SMILES: COc1cccc2c1nc(C(F)F)n2-c1nc(Nc2ccc(F)nc2)nc(N2CCOCC2)n1
- IC50 [1]: < 0.1 µM
- IC50 [2]: 0.1 to 1 µM
- IC50 [3]: < 0.1 µM

SMILES: FC(F)c1nc2ccccc2n1-c1nc(Nc2ccncc2)nc(N2CCOCC2)n1
- IC50 [1]: < 0.1 µM
- IC50 [2]: 0.1 to 1 µM
- IC50 [3]: < 0.1 µM

SMILES: CN(c1ccccc1)c1nc(N2CCOCC2)nc(-n2c(C(F)F)nc3ccccc32)n1
- IC50 [1]: 0.1 to 1 µM
- IC50 [2]: 0.1 to 1 µM
- IC50 [3]: 0.1 to 1 µM

SMILES: COc1cccc2c1nc(C(F)F)n2-c1nc(Nc2ccncn2)nc(N2CCOCC2)n1
- IC50 [1]: < 0.1 µM
- IC50 [2]: 0.1 to 1 µM
- IC50 [3]: < 0.1 µM

SMILES: FC(F)c1nc2ccccc2n1-c1nc(Nc2ncccn2)nc(N2CCOCC2)n1
- IC50 [1]: 0.1 to 1 µM

SMILES: FC(F)c1nc2ccccc2n1-c1nc(-c2cccnc2)nc(N2CCOCC2)n1
- IC50 [1]: < 0.1 µM
- IC50 [2]: 0.1 to 1 µM
- IC50 [3]: < 0.1 µM

SMILES: COc1cc(Nc2nc(N3CCOCC3)nc(-n3c(C(F)F)nc4c(OC)cccc43)n2)ncn1
- IC50 [1]: < 0.1 µM
- IC50 [2]: 0.1 to 1 µM
- IC50 [3]: < 0.1 µM

SMILES: FC(F)c1nc2ccccc2n1-c1nc(Oc2cccnc2)nc(N2CCOCC2)n1
- IC50 [1]: 0.1 to 1 µM

SMILES: COc1cccc2c1nc(C(F)F)n2-c1nc(Nc2cnc(N(C)CCN(C)C)nc2)nc(N2CCOCC2)n1
- IC50 [1]: < 0.1 µM
- IC50 [3]: < 0.1 µM

SMILES: FC(F)c1nc2ccccc2n1-c1nc(Nc2cnccn2)nc(N2CCOCC2)n1
- IC50 [1]: < 0.1 µM
- IC50 [3]: < 0.1 µM

SMILES: COc1ccc(Nc2nc(N3CCOCC3)nc(-n3c(C(F)F)nc4c(OC)cccc43)n2)cn1
- IC50 [1]: < 0.1 µM
- IC50 [2]: < 0.1 µM
- IC50 [3]: < 0.1 µM

SMILES: COc1cccc2c1nc(C(F)F)n2-c1nc(-c2ccc(N)nc2)nc(N2CCOCC2)n1
- IC50 [1]: < 0.1 µM
- IC50 [3]: < 0.1 µM

SMILES: FC(F)c1nc2ccccc2n1-c1nc(Oc2ccccc2)nc(N2CCOCC2)n1
- IC50 [1]: > 10 µM
- IC50 [2]: > 10 µM

SMILES: COc1cccc2c1nc(C(F)F)n2-c1nc(Nc2ccc(N(C)C)nc2)nc(N2CCOCC2)n1
- IC50 [1]: < 0.1 µM
- IC50 [2]: 0.1 to 1 µM
- IC50 [3]: < 0.1 µM

SMILES: FC(F)c1nc2ccccc2n1-c1nc(Nc2ccccc2)nc(N2CCOCC2)n1
- IC50 [1]: 0.1 to 1 µM
- IC50 [2]: 0.1 to 1 µM
- IC50 [3]: < 0.1 µM

SMILES: CS(=O)(=O)c1nc2ccccc2n1-c1nc(Nc2cccnc2)nc(N2CCOCC2)n1
- IC50 [1]: 0.1 to 1 µM
- IC50 [2]: 0.1 to 1 µM
- IC50 [3]: < 0.1 µM

SMILES: COc1cc(N)cc2c1nc(C(F)F)n2-c1nc(-c2cccnc2)cc(N2CCOCC2)n1
- IC50 [1]: < 0.1 µM
- IC50 [3]: < 0.1 µM

SMILES: FC(F)c1nc2ccccc2n1-c1nc(Nc2ccccn2)nc(N2CCOCC2)n1
- IC50 [1]: < 0.1 µM
- IC50 [3]: < 0.1 µM

SMILES: COc1cccc2c1nc(C(F)F)n2-c1nc(Nc2ccc(N)nc2)nc(N2CCOCC2)n1
- IC50 [1]: < 0.1 µM
- IC50 [2]: 0.1 to 1 µM
- IC50 [3]: < 0.1 µM

SMILES: FC(F)c1nc2ccccc2n1-c1nc(-c2cccnc2)cc(N2CCOCC2)n1
- IC50 [1]: 0.1 to 1 µM
- IC50 [3]: 0.1 to 1 µM

SMILES: COc1cccc2c1nc(C(F)F)n2-c1nc(Nc2cnc(N(C)CCCN(C)C)nc2)nc(N2CCOCC2)n1
- IC50 [1]: < 0.1 µM
- IC50 [3]: < 0.1 µM

SMILES: COc1cc(N)cc2c1nc(C(F)F)n2-c1nc(-c2ccn(C)n2)nc(N2CCOCC2)n1
- IC50 [1]: < 0.1 µM
- IC50 [3]: < 0.1 µM

SMILES: FC(F)c1nc2ccccc2n1-c1nc(Sc2ccccc2)nc(N2CCOCC2)n1
- IC50 [1]: > 10 µM
- IC50 [2]: > 10 µM

SMILES: COc1cc(N)cc2c1nc(C(F)F)n2-c1nc(N2CCOCC2)nc(-n2cccn2)n1
- IC50 [1]: < 0.1 µM
- IC50 [3]: < 0.1 µM

SMILES: FC(F)c1nc2ccccc2n1-c1nc(Nc2ccncn2)nc(N2CCOCC2)n1
- IC50 [1]: < 0.1 µM
- IC50 [3]: < 0.1 µM

SMILES: FC(F)c1nc2ccccc2n1-c1nc(NCc2cccnc2)nc(N2CCOCC2)n1
- IC50 [1]: 0.1 to 1 µM
- IC50 [2]: 0.1 to 1 µM
- IC50 [3]: < 0.1 µM

SMILES: COc1ncc(-c2cc(N3CCOCC3)nc(-n3c(C(F)F)nc4c(OC)cccc43)n2)cn1
- IC50 [1]: < 0.1 µM
- IC50 [3]: 0.1 to 1 µM

SMILES: FC(F)c1nc2ccccc2n1-c1nc(Nc2cncnc2)nc(N2CCOCC2)n1
- IC50 [1]: < 0.1 µM
- IC50 [2]: 0.1 to 1 µM
- IC50 [3]: < 0.1 µM

SMILES: COc1ncc(Nc2nc(N3CCOCC3)nc(-n3c(C(F)F)nc4c(OC)cccc43)n2)cn1
- IC50 [1]: < 0.1 µM
- IC50 [2]: 0.1 to 1 µM
- IC50 [3]: < 0.1 µM

SMILES: COc1ccc(Nc2nc(N3CCOCC3)nc(-n3c(C(F)F)nc4c(OC)cccc43)n2)nn1
- IC50 [1]: < 0.1 µM
- IC50 [2]: 0.1 to 1 µM
- IC50 [3]: < 0.1 µM

SMILES: COc1cccc2c1nc(C(F)F)n2-c1nc(N2CCOCC2)nc(-n2cccn2)n1
- IC50 [1]: < 0.1 µM
- IC50 [3]: < 0.1 µM

SMILES: FC(F)c1nc2ccccc2n1-c1nc(Nc2cccnc2)nc(N2CCOCC2)n1
- IC50 [1]: < 0.1 µM
- IC50 [2]: < 0.1 µM
- IC50 [3]: < 0.1 µM

SMILES: COc1cccc2c1nc(C(F)F)n2-c1nc(Nc2cnc(Cl)nc2)nc(N2CCOCC2)n1
- IC50 [1]: < 0.1 µM
- IC50 [3]: < 0.1 µM

SMILES: COc1cc(N)cc2c1nc(C(F)F)n2-c1nc(-c2cn[nH]c2)nc(N2CCOCC2)n1
- IC50 [1]: < 0.1 µM
- IC50 [3]: < 0.1 µM

SMILES: CN(Cc1ccccc1)c1nc(N2CCOCC2)nc(-n2c(C(F)F)nc3ccccc32)n1
- IC50 [2]: 0.1 to 1 µM
- IC50 [3]: < 0.1 µM

SMILES: COc1cccc2c1nc(C(F)F)n2-c1nc(-c2cccnc2)nc(N2CCOCC2)n1
- IC50 [1]: < 0.1 µM
- IC50 [3]: < 0.1 µM

SMILES: COc1cccc2c1nc(C(F)F)n2-c1nc(N2CCOCC2)c2ncn(-c3cncnc3)c2n1
- IC50 [1]: < 0.1 µM
- IC50 [3]: < 0.1 µM

SMILES: FC(F)c1nc2ccccc2n1-c1nc(NCc2ccccn2)nc(N2CCOCC2)n1
- IC50 [1]: < 0.1 µM
- IC50 [2]: < 0.1 µM
- IC50 [3]: < 0.1 µM

SMILES: FC(F)c1nc2ccccc2n1-c1nc(Nc2cnc3ccccc3c2)nc(N2CCOCC2)n1
- IC50 [1]: 0.1 to 1 µM
- IC50 [3]: 0.1 to 1 µM

SMILES: COc1cccc2c1nc(C(F)F)n2-c1nc(Nc2ccc(Cl)nc2)nc(N2CCOCC2)n1
- IC50 [1]: < 0.1 µM
- IC50 [2]: 0.1 to 1 µM
- IC50 [3]: < 0.1 µM

SMILES: CNc1ccc(Nc2nc(N3CCOCC3)nc(-n3c(C(F)F)nc4c(OC)cccc43)n2)cn1
- IC50 [1]: < 0.1 µM
- IC50 [2]: 0.1 to 1 µM
- IC50 [3]: < 0.1 µM

SMILES: COc1cccc2c1nc(C(F)F)n2-c1nc(-c2cccnc2)cc(N2CCOCC2)n1
- IC50 [1]: < 0.1 µM
- IC50 [3]: < 0.1 µM

SMILES: COc1cccc2c1nc(C(F)F)n2-c1nc(N2CCOCC2)nc(N(C)c2cccnc2)n1
- IC50 [1]: < 0.1 µM
- IC50 [2]: < 0.1 µM
- IC50 [3]: < 0.1 µM

SMILES: CSc1nc2ccccc2n1-c1nc(Nc2cccnc2)nc(N2CCOCC2)n1
- IC50 [3]: 0.1 to 1 µM

SMILES: CN(c1cncnc1)c1nc(N2CCOCC2)nc(-n2c(C(F)F)nc3ccccc32)n1
- IC50 [1]: < 0.1 µM
- IC50 [3]: < 0.1 µM

SMILES: COc1ccncc1Nc1nc(N2CCOCC2)nc(-n2c(C(F)F)nc3c(OC)cccc32)n1
- IC50 [1]: < 0.1 µM
- IC50 [2]: 0.1 to 1 µM
- IC50 [3]: < 0.1 µM

SMILES: Cn1cc(Nc2nc(N3CCOCC3)nc(-n3c(C(F)F)nc4ccccc43)n2)cn1
- IC50 [1]: < 0.1 µM
- IC50 [2]: 0.1 to 1 µM
- IC50 [3]: < 0.1 µM

SMILES: COc1cccc2c1nc(C(F)F)n2-c1nc(Nc2cccnn2)nc(N2CCOCC2)n1
- IC50 [1]: < 0.1 µM
- IC50 [2]: 0.1 to 1 µM
- IC50 [3]: < 0.1 µM

SMILES: FC(F)c1nc2ccccc2n1-c1nc(-c2cncnc2)cc(N2CCOCC2)n1
- IC50 [1]: 0.1 to 1 µM
- IC50 [3]: 0.1 to 1 µM

SMILES: FC(F)c1nc2ccccc2n1-c1nc(NCc2ccncc2)nc(N2CCOCC2)n1
- IC50 [1]: 0.1 to 1 µM

SMILES: COc1cccc2c1nc(C(F)F)n2-c1nc(Nc2cccnc2)nc(N2CCOCC2)n1
- IC50 [1]: < 0.1 µM
- IC50 [2]: 0.1 to 1 µM
- IC50 [3]: < 0.1 µM

SMILES: FC(F)c1nc2ccccc2n1-c1nc(Nc2cccnn2)nc(N2CCOCC2)n1
- IC50 [1]: < 0.1 µM
- IC50 [2]: 0.1 to 1 µM
- IC50 [3]: < 0.1 µM

SMILES: COc1cccc2c1nc(C(F)F)n2-c1nc(-c2cncnc2)cc(N2CCOCC2)n1
- IC50 [1]: < 0.1 µM
- IC50 [3]: 0.1 to 1 µM

SMILES: COc1cccc2c1nc(C(F)F)n2-c1nc(Nc2cncnc2)nc(N2CCOCC2)n1
- IC50 [1]: < 0.1 µM
- IC50 [2]: 0.1 to 1 µM
- IC50 [3]: < 0.1 µM

SMILES: FC(F)c1nc2ccccc2n1-c1nc(NCc2ccccc2)nc(N2CCOCC2)n1
- IC50 [1]: 0.1 to 1 µM
- IC50 [2]: < 0.1 µM
- IC50 [3]: < 0.1 µM

SMILES: COc1ccncc1Nc1nc(N2CCOCC2)nc(-n2c(C(F)F)nc3ccccc32)n1
- IC50 [1]: < 0.1 µM
- IC50 [2]: 0.1 to 1 µM
- IC50 [3]: < 0.1 µM

SMILES: COc1cccc2c1nc(C(F)F)n2-c1nc(N2CCOCC2)nc(N(C)c2cncnc2)n1
- IC50 [1]: < 0.1 µM
- IC50 [3]: < 0.1 µM
